Patent publication US20140187423A1, “Fungicidal substituted 1--1H-[1,2,4]triazole compounds” (BASF SE, priority 2011, published 2014)

Assays:
[1] = system: Phakopsora pachyrhizi; assay: Green house G1: protective control of soy bean rust on soy beans caused by Phakopsora pachyrhizi (Phakpa P2); format: in vivo; settings: soy bean seedlings sprayed 2 days before inoculation, % diseased leaf area, untreated control 70
Description: The spray solutions were prepared in several steps:
The stock solution were prepared: a mixture of acetone and/or dimethylsulfoxide and the wetting agent/emulsifier Wettol, which is based on ethoxylated alkylphenoles, in a relation (volume) solvent-emulsifier of 99 to 1 was added to 25 mg of the compound to give a total of 5 ml. Water was then added to total volume of 100 ml. This stock solution was diluted with the described solvent-emulsifier-water mixture to the given concentration.
G1. Protective control of soy bean rust on soy beans caused by Phakopsora pachyrhizi (Phakpa P2)
Leaves of pot-grown soy bean seedlings were sprayed to run-off with an aqueous suspension, containing the concentration of active ingredient or their mixture as described below. The plants were allowed to air-dry. The trial plants were cultivated for 2 days in a greenhouse chamber at 23-27° C. and a relative humidity between 60 and 80%. Then the plants were inoculated with spores of Phakopsora pachyrhizi. To ensure the success the artificial inoculation, the plants were transferred to a humid chamber with a relative humidity of about 95% and 20 to 24° C. for 24 h. The trial plants were cultivated for fourteen days in a greenhouse chamber at 23-27° C. and a relative humidity between 60 and 80%. The extent of fungal attack on the leaves was visually assessed as % diseased leaf area.

[2] = system: Septoria tritici; assay: Green house G2: preventative control of leaf blotch on wheat caused by Septoria tritici (Septtr P7); format: in vivo; settings: wheat seedlings sprayed 7 days before inoculation, % diseased leaf area, untreated control 70
Description: The spray solutions were prepared in several steps: The stock solution were prepared: a mixture of acetone and/or dimethylsulfoxide and the wetting agent/emulsifier Wettol, which is based on ethoxylated alkylphenoles, in a relation (volume) solvent-emulsifier of 99 to 1 was added to 25 mg of the compound to give a total of 5 ml. Water was then added to total volume of 100 ml. This stock solution was diluted with the described solvent-emulsifier-water mixture to the given concentration. G2. Preventative control of leaf blotch on wheat caused by Septoria tritici (Septtr P7) Leaves of pot-grown wheat seedling were sprayed to run-off with an aqueous suspension of the active compound or their mixture, prepared as described. The plants were allowed to air-dry. Seven days later the plants were inoculated with an aqueous spore suspension of Septoria tritici. Then the trial plants were immediately transferred to a humid chamber at 18-22° C. and a relative humidity close to 100%. After 4 days the plants were transferred to a chamber with 18-22° C. and a relative humidity close to 70%. After 4 weeks the extent of fungal attack on the leaves was visually assessed as % diseased leaf area.

`CCOC(Cn1cncn1)c1ccc(Oc2ccc(Cl)cc2)cc1Cl` (centres unmarked) [prior art compound] was tested, and the “Disease (%) at 16 ppm Phakpa P2” value [1] was 70% and the “Disease (%) at 16 ppm Septtr P7” value [2] was 50%.
